Test results reported in ChEMBL document CHEMBL5634120, “Natural phytoalexins inspired the discovery of new biphenyls as potent antifungal agents for treatment of invasive fungal infections” (Eur J Med Chem, 2023).
Values after ≈ are worked out from the molar mass of the structure shown. Active and inactive are the calls of the source. No cut-off for these calls is given here.

Experiments:
[1] = test system: Candida albicans; test: Antifungal activity against Candida albicans ATCC10231 assessed as inhibition of fungal growth incubated for 72 hrs by broth microdilution method; type: functional
[2] = test system: Candida tropicalis; test: Antifungal activity against Candida tropicalis ATCC1369 assessed as inhibition of fungal growth incubated for 72 hrs by broth microdilution method; type: functional
[3] = test system: Aspergillus fumigatus; test: Antifungal activity against Aspergillus fumigatus AS3.3913 assessed as inhibition of fungal growth incubated for 72 hrs by broth microdilution method; type: functional
[4] = test system: Cryptococcus neoformans; test: Antifungal activity against Cryptococcus neoformans ATCC32045 assessed as inhibition of fungal growth incubated for 72 hrs by broth microdilution method; type: functional
[5] = test system: Cryptococcus neoformans; test: Selectivity ratio of MFC for Cryptococcus neoformans ATCC32045 to MIC for Cryptococcus neoformans ATCC32045; type: functional
[6] = test system: Cryptococcus neoformans; test: Fungicidal activity against Cryptococcus neoformans ATCC32045 incubated for 72 hrs; type: functional
[7] = test system: Cell membrane; test: Disruption of membrane integrity in Cryptococcus neoformans ATCC32045 assessed as blue fluorescence at 2 ug/ml incubated for 4 hrs by DAPI staining based fluorescence microscopic analysis; type: subcellular; conditions: dose 2.0 µg/ml
[8] = test system: Cell membrane; test: Disruption of membrane integrity in Cryptococcus neoformans ATCC32045 assessed as red fluorescence at 2 ug/ml incubated for 4 hrs by PI staining based fluorescence microscopic analysis; type: subcellular; conditions: dose 2.0 µg/ml
[9] = test system: Cryptococcus neoformans; test: Fungicidal activity against Cryptococcus neoformans ATCC32045 assessed as reduction in viable colony counts at 0.5 to 1 ug/ml observed within 4 hrs by time kill assay (reference value: 6 log10CFU/ml); type: functional; conditions: dose 0.5-1 µg/ml
[10] = Selectivity index, ratio of CC50 for HUVEC cells to MIC for antifungal activity against Cryptococcus neoformans ATCC32045; type: toxicity; conditions: human, read-out: Selectivity Index
[11] = Cytotoxicity against HUVEC cells assessed as inhibition of cell viability incubated for 24 hrs by CCK-8 assay; type: toxicity, cell-based; conditions: human
[12] = test system: Cryptococcus neoformans; test: Fungicidal activity against Cryptococcus neoformans ATCC32045 assessed as reduction in viable colony count incubated for 12 hrs by time kill assay; type: functional, organism-based
[13] = test system: Cryptococcus neoformans; test: Antifungal activity against Cryptococcus neoformans ATCC32045 assessed as inhibition of melanin production at 8 ug/ml; type: functional, organism-based; conditions: dose 8.0 µg/ml
[14] = test system: Cell membrane; test: Disruption of cell membrane in Cryptococcus neoformans ATCC32045 assessed as cell wrinkling at 2 ug/ml incubated for 12 hrs by scanning electron microscopy analysis; type: subcellular; conditions: dose 2.0 µg/ml
[15] = test system: Cryptococcus neoformans; test: Antibiofilm activity against Cryptococcus neoformans ATCC32045 assessed as inhibition of biofilm formation at >=4 ug/ml incubated for 24 hrs by XTT reduction assay relative to control; type: functional; conditions: dose >= 4 µg/ml
[16] = test system: Cryptococcus neoformans; test: Disruption of 24 hrs preformed biofilm in Cryptococcus neoformans ATCC32045 incubated for 24 hrs by XTT reduction assay; type: functional, organism-based; conditions: dose 0.125-8 µg/ml
[17] = test system: Cryptococcus neoformans; test: Antifungal activity against Cryptococcus neoformans ATCC32045 assessed as inhibition of urease production at 2 ug/ml; type: functional, organism-based; conditions: dose 2.0 µg/ml
[18] = test system: Cell membrane; test: Disruption of cell membrane in Cryptococcus neoformans ATCC32045 assessed as cell disintegration at 2 ug/ml incubated for 12 hrs by scanning electron microscopy analysis; type: subcellular; conditions: dose 2.0 µg/ml
[19] = test system: Cryptococcus neoformans; test: Antibiofilm activity against Cryptococcus neoformans ATCC32045 assessed as inhibition of biofilm formation incubated for 24 hrs by XTT reduction assay; type: functional, organism-based; conditions: dose 0.125-8 µg/ml
[20] = test system: Cell membrane; test: Disruption of cell membrane in Cryptococcus neoformans ATCC32045 assessed as cell shrinkage at 2 ug/ml incubated for 12 hrs by scanning electron microscopy analysis; type: subcellular; conditions: dose 2.0 µg/ml
[21] = test system: Cryptococcus neoformans; test: Antibiofilm activity against Cryptococcus neoformans ATCC32045 assessed as reduction in 24 hrs preformed biofilm at 1 ug/ml incubated for 24 hrs by XTT reduction assay relative to control; type: functional; set-up: scale not given: the % may be the effect or the level left; conditions: dose 1 µg/ml

Row | SMILES | MIC [1] [µg/mL] | MIC [2] [µg/mL] | MIC [3] [µg/mL] | MIC [4] [µg/mL] | other results
1 | CCCCCCc1cccc(-c2cc(O)c(O)c(OC)c2)c1 | > 512 | 8 (≈ 26.6 µM) | 512 (≈ 1700 µM) | 2 (≈ 6.66 µM) | 
2 | CCCCCc1ccc(-c2cccc(O)c2O)cc1 | 4 (≈ 15.6 µM) | 2 (≈ 7.8 µM) | 16 (≈ 62.4 µM) | 1 (≈ 3.9 µM) | 
3 | COc1cc(-c2ccccc2)cc2c1OCO2 | > 512 | > 512 | 512 (≈ 2240 µM) | > 512 | 
4 | COc1cc(-c2ccccc2F)cc(O)c1O | 128 (≈ 546 µM) | 128 (≈ 546 µM) | 64 (≈ 273 µM) | 128 (≈ 546 µM) | 
5 | CCCCc1ccc(-c2cc(O)c(O)c(OC)c2)cc1 | 16 (≈ 58.7 µM) | 4 (≈ 14.7 µM) | 32 (≈ 117 µM) | 2 (≈ 7.34 µM) | 
6 | COc1cc(-c2ccc(C(C)C)cc2)cc(O)c1O | 16 (≈ 61.9 µM) | 16 (≈ 61.9 µM) | 64 (≈ 248 µM) | 8 (≈ 31 µM) | 
7 | COc1cc(-c2ccccc2)cc(OC)c1O [AUCUPARIN] | > 512 | > 512 | > 512 | 64 (≈ 278 µM) | 
8 | CCCCCc1ccc(-c2cc(O)c(O)c(OC)c2)cc1 | 8 (≈ 27.9 µM) | 2 (≈ 6.98 µM) | 512 (≈ 1790 µM) | 2 (≈ 6.98 µM) | 
9 | CCCCc1ccc(-c2ccc(O)c(O)c2)cc1 | 4 (≈ 16.5 µM) | 4 (≈ 16.5 µM) | 16 (≈ 66 µM) | 0.5 (≈ 2.06 µM) | 
10 | CCCCCCCCc1ccc(-c2cc(O)c(O)c(OC)c2)cc1 | > 512 | > 512 | > 512 | 4 (≈ 12.2 µM) | 
11 | CCc1cccc(-c2cc(O)c(O)c(OC)c2)c1 | 128 (≈ 524 µM) | 128 (≈ 524 µM) | 128 (≈ 524 µM) | 32 (≈ 131 µM) | 
12 | CCc1ccccc1-c1cc(O)c(O)c(OC)c1 | 256 (≈ 1050 µM) | 128 (≈ 524 µM) | 128 (≈ 524 µM) | 64 (≈ 262 µM) | 
13 | CCCCCc1ccc(-c2ccc(O)c(O)c2)cc1 | 4 (≈ 15.6 µM) | 2 (≈ 7.8 µM) | 16 (≈ 62.4 µM) | 0.25 (≈ 0.975 µM) | Selectivity ratio [5]: 2; MFC [6]: 0.5 µg/mL (≈ 1.95 µM)
14 | CCCCCc1ccc(-c2cc(O)ccc2O)cc1 | 16 (≈ 62.4 µM) | 16 (≈ 62.4 µM) | 64 (≈ 250 µM) | 2 (≈ 7.8 µM) | 
15 | C=CCOc1cc(-c2ccccc2)cc(OC)c1OCC=C | > 512 | > 512 | > 512 | > 512 | 
16 | COc1cc(-c2cc(C(C)(C)C)cc(C(C)(C)C)c2)cc(O)c1O | > 512 | > 512 | 128 (≈ 390 µM) | > 512 | 
17 | CCCCCCCc1ccc(-c2cc(O)c(O)c(OC)c2)cc1 | 512 (≈ 1630 µM) | 512 (≈ 1630 µM) | > 512 | 2 (≈ 6.36 µM) | 
18 | CCCCCCc1ccc(-c2cc(O)c(O)c(OC)c2)cc1 | 512 (≈ 1700 µM) | 4 (≈ 13.3 µM) | > 512 | 1 (≈ 3.33 µM) | 
19 | COc1cc(-c2ccc(O)cc2)cc(O)c1O | > 512 | > 512 | > 512 | > 512 | 
20 | CCCc1ccc(-c2ccc(-c3cc(O)c(O)c(OC)c3)cc2)cc1 | 512 (≈ 1530 µM) | 64 (≈ 191 µM) | > 512 | 4 (≈ 12 µM) | 

Row | SMILES | MIC [1] [µg/mL] | MIC [2] [µg/mL] | MIC [3] [µg/mL] | MIC [4] [µg/mL] | other results
21 | COc1cc(-c2ccccc2)cc(OCc2ccccc2)c1OCc1ccccc1 | > 512 | > 512 | > 512 | > 512 | 
22 | CCc1cc(CC)cc(-c2cc(O)c(O)c(OC)c2)c1 | 64 (≈ 235 µM) | 16 (≈ 58.7 µM) | 32 (≈ 117 µM) | 8 (≈ 29.4 µM) | 
23 | CCCc1ccc(-c2cc(O)c(O)c(OC)c2)cc1 | 16 (≈ 61.9 µM) | 8 (≈ 31 µM) | 64 (≈ 248 µM) | 4 (≈ 15.5 µM) | 
24 | CCCCCc1ccc(-c2c(O)cccc2O)cc1 | 32 (≈ 125 µM) | 32 (≈ 125 µM) | 32 (≈ 125 µM) | 8 (≈ 31.2 µM) | 
25 | CCc1ccc(-c2cc(O)c(O)c(OC)c2)cc1 | 32 (≈ 131 µM) | 32 (≈ 131 µM) | 64 (≈ 262 µM) | 8 (≈ 32.7 µM) | 
26 | COc1cc(-c2ccccc2)cc(O)c1O | 128 (≈ 592 µM) | 128 (≈ 592 µM) | 128 (≈ 592 µM) | 64 (≈ 296 µM) | 
27 | COc1cc(-c2ccccc2)cc(OC(=O)c2ccc(C)cc2)c1OC(=O)c1ccc(C)cc1 | > 512 | > 512 | > 512 | > 512 | 
28 | C[C@@H]1[C@H](O)[C@@H](C)/C=C/C=C/C=C/C=C/C=C/C=C/C=C/[C@H](O[C@@H]2O[C@H](C)[C@@H](O)[C@H](N)[C@@H]2O)C[C@@H]2O[C@](O)(C[C@@H](O)C[C@@H](O)[C@H](O)CC[C@@H](O)C[C@@H](O)CC(=O)O[C@H]1C)C[C@H](O)[C@H]2C(=O)O [AMPHOTERICIN B] | 0.5 (≈ 0.541 µM) | 0.5 (≈ 0.541 µM) | 2 (≈ 2.16 µM) | 0.25 (≈ 0.271 µM) | Activity [7]: Active; Activity [8]: Active; Activity [9]: 4 log10CFU/ml; Selectivity ratio [10]: 16; CC50 at 24 h [11]: 4.12 µg/mL (≈ 4.46 µM); MFC [6]: 2 µg/mL (≈ 2.16 µM); Activity [12]: Dose-Dependent Effect
29 | COc1cc(-c2ccc(CCC#N)cc2)cc(O)c1O | 512 (≈ 1900 µM) | 512 (≈ 1900 µM) | 512 (≈ 1900 µM) | 512 (≈ 1900 µM) | 
30 | CCCCC(=O)c1ccc(-c2cc(O)c(O)c(OC)c2)cc1 | 512 (≈ 1700 µM) | 512 (≈ 1700 µM) | 512 (≈ 1700 µM) | 512 (≈ 1700 µM) | 
31 | CCCCCc1ccc(-c2ccc(O)cc2O)cc1 | 2 (≈ 7.8 µM) | 2 (≈ 7.8 µM) | 8 (≈ 31.2 µM) | 0.5 (≈ 1.95 µM) | Selectivity ratio [5]: 1; MFC [6]: 0.5 µg/mL (≈ 1.95 µM)
32 | COc1cc(-c2ccc(C(C)(C)C)cc2)cc(O)c1O | 16 (≈ 58.7 µM) | 16 (≈ 58.7 µM) | 64 (≈ 235 µM) | 4 (≈ 14.7 µM) | 
33 | COc1cc(-c2ccccc2)cc(OC(=O)C2CCCCC2)c1OC(=O)C1CCCCC1 | > 512 | > 512 | > 512 | > 512 | 
34 | COc1cc(-c2ccc(CCBr)cc2)cc(O)c1O | 32 (≈ 99 µM) | 32 (≈ 99 µM) | 128 (≈ 396 µM) | 8 (≈ 24.8 µM) | 
35 | CCCCCc1ccc(-c2cc(O)cc(O)c2)cc1 | 2 (≈ 7.8 µM) | 1 (≈ 3.9 µM) | 8 (≈ 31.2 µM) | 0.25 (≈ 0.975 µM) | Activity [7]: Active; Activity [13]: Active; Activity [14]: Active; Selectivity ratio [5]: 4; inhibition (INH) [15]: ~100%; Activity [16]: Dose-Dependent Effect; Activity [8]: Active; Activity [17]: Active; Activity [9]: 4 log10CFU/ml; CC50 at 24 h [11]: 19.4 µg/mL (≈ 75.7 µM); Activity [18]: Active; Activity [19]: Dose-Dependent Effect; MFC [6]: 1 µg/mL (≈ 3.9 µM); Activity [20]: Active; Activity [12]: Dose-Dependent Effect; Activity [21]: ~71.6%
36 | Oc1cc(-c2ccccc2)cc(O)c1O | > 512 | > 512 | > 512 | 256 (≈ 1270 µM) | 
37 | CCCCCc1ccc(-c2ccc(O)c(O)c2O)cc1 | 8 (≈ 29.4 µM) | 4 (≈ 14.7 µM) | 32 (≈ 117 µM) | 4 (≈ 14.7 µM) | 
38 | CCCCCc1ccc(-c2cc(O)c(O)c(O)c2)cc1 | 8 (≈ 29.4 µM) | 4 (≈ 14.7 µM) | 32 (≈ 117 µM) | 2 (≈ 7.34 µM) | 
39 | COc1cc(-c2ccc(C3CCCCC3)cc2)cc(O)c1O | 512 (≈ 1720 µM) | 512 (≈ 1720 µM) | > 512 | 2 (≈ 6.7 µM) | 
40 | COc1cc(-c2ccccc2)cc(OC(C)=O)c1OC(C)=O | > 512 | > 512 | > 512 | > 512 | 
